From patent US9242984B2, “Pyrazolyl derivatives as Syk inhibitors” (Merck Sharp & Dohme Corp., priority 2012, dated 2016)

target: T1, recombinant human Syk (GST-hSyk fusion protein) (Homo sapiens, UniProt P43405); assay: Homogeneous Time-Resolved Fluorescence (HTRF) assay for the recombinant human Syk enzyme; type: biochemical; conditions: 10-dose titration, 25 μM ATP; read-out: rhSYK IC50
T1 construct: purchased Carna Biosciences 08-176
Outline: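 IC50 came from a four-parameter fit over ten doses, 10 μM to 0.508 nM, with HTRF read-out (Eu-anti-pTyr antibody, SA-APC, EDTA stop, 30 min). The enzyme, 5 pM GST-hSyk, met compound for 10 min, then phosphorylated 250 nM biotin-peptide with 25 μM ATP and 5 mM Mg for 45 min at room temperature, pH 7.5.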

| SMILES | IC50 |
| --- | --- |
| Cc1cc(Nc2nccc(C3CC3)n2)cc(-c2cnn(C[C@@H](O)C(=O)O)c2)c1 [Example 11.1, (R)-3-(4-(3-(4-cyclopropylpyrimidin-2-ylamino)-5-methylphenyl)-1H-pyrazol-1-yl)-2-hydroxypropanoic acid] | 6.2 nM |
| Cc1cc(Nc2nccc(C(F)F)n2)cc(-c2cnn(C3CC(C)(C)CC(C)(O)C3O)c2)c1 (stereo not shown) [Example 22.10] | 6.7 nM |

same assay, conditions: IC50 class; 10-dose titration, 25 μM ATP; read-out: rhSYK Activity

| SMILES | IC50 |
| --- | --- |
| Cc1cc(Nc2cc(C(F)(F)F)ccn2)nc(-c2cnn(CC(C)(O)CC#N)c2)c1 (stereo not shown) [Example 20.4, 3-hydroxy-3-methyl-4-[4-(4-methyl-6-{[4-(trifluoromethyl)pyridin-2-yl]amino}pyridin-2-yl)-1H-pyrazol-1-yl]butanenitrile] | ≤ 100 nM |
| Nc1cc(Nc2nccc(C(F)(F)F)n2)cc(-c2cnn(C3CCC(C(=O)O)CC3)c2)c1 (stereo not shown) [Example 1.51, 4-[4-(3-amino-5-{[4-(trifluoromethyl)pyrimidin-2-yl]amino}phenyl)-1H-pyrazol-1-yl]cyclohexanecarboxylic acid] | ≤ 100 nM |
| Cc1cc(Nc2nccc(C(F)(F)F)n2)cc(-c2cnn(CC(C)(O)CC#N)c2)c1 (stereo not shown) [Example 20.3, 3-hydroxy-3-methyl-4-[4-(3-methyl-5-{[4-(trifluoromethyl)pyrimidin-2-yl]amino}phenyl)-1H-pyrazol-1-yl]butanenitrile] | ≤ 100 nM |
| Cc1cc(Nc2nccc(C(F)(F)F)n2)cc(-c2cnn(CC3(O)CCCOC3)c2)c1 (stereo not shown) [Example 12.11, 3-{[4-(3-methyl-5-{[4-(trifluoromethyl)pyrimidin-2-yl]amino}phenyl)-1H-pyrazol-1-yl]methyl}-tetrahydro-2H-pyran-3-ol] | ≤ 100 nM |
| Cc1cc(Nc2nccc(C(F)F)n2)cc(-c2cnn(Cc3ccc(=O)[nH]c3)c2)c1 [Example 3.95, 5-{[4-(3-{[4-(difluoromethyl)pyrimidin-2-yl]amino}-5-methylphenyl)-1H-pyrazol-1-yl]methyl}pyridin-2(1H)-one] | ≤ 100 nM |
| Cc1cc(Nc2nccc(C(F)(F)F)n2)cc(-c2cnn(C[C@H](N)C(N)=O)c2)c1 [Example 7.2, 3-[4-(3-methyl-5-{[4-(trifluoro-methyl)pyrimidin-2-yl]amino}phenyl)-1H-pyrazol-1-yl]-1-alaninamide] | ≤ 100 nM |
| Cc1cc(Nc2nccc(C(F)F)n2)cc(-c2cnn([C@H]3CC[C@H](C(=O)O)CC3)c2)c1 [Example 2.61, trans-4-[4-(3-{[4-(difluoromethyl)pyrimidin-2-yl]amino}-5-methylphenyl)-1H-pyrazol-1-yl]cyclohexanecarboxylic acid] | ≤ 100 nM |
| Cc1cc(Nc2nccc(C3CC3)n2)cc(-c2cnn(C[C@@H](O)C(=O)O)c2)c1 [Example 11.1, (R)-3-(4-(3-(4-cyclopropylpyrimidin-2-ylamino)-5-methylphenyl)-1H-pyrazol-1-yl)-2-hydroxypropanoic acid] | ≤ 100 nM |
| CCC(C(=O)OC)n1cc(-c2cc(C)cc(Nc3nccc(C(F)(F)F)n3)c2)cn1 (stereo not shown) [Example 3.28, methyl 2-[4-(3-methyl-5-{[4-(trifluoromethyl)pyrimidin-2-yl]amino}-phenyl)-1H-pyrazol-1-yl]butanoate] | ≤ 100 nM |
| Cc1cc(Nc2nccc(C(F)(F)F)n2)cc(-c2cnn(C3C=CCCC3)c2)c1 (stereo not shown) [Example 1.5, N-[3-(1-cyclohex-2-en-1-yl-1H-pyrazol-4-yl)-5-methylphenyl]-4-(trifluoromethyl)-pyrimidin-2-amine] | ≤ 100 nM |
| Cc1cc(Nc2nccc(C)n2)cc(-c2cnn(C3CCC(C(=O)O)CC3)c2)c1 (stereo not shown) [Example 1.59, 4-(4-{3-methyl-5-[(4-methylpyrimidin-2-yl)amino]phenyl}-1H-pyrazol-1-yl)cyclohexanecarboxylic acid] | ≤ 100 nM |
| Cc1cc(Nc2nccc(C(F)F)n2)cc(-c2cnn(CC3OC(=O)NC3=O)c2)c1 (stereo not shown) [Example 2.75, 5-{[4-(3-{[4-(difluoromethyl)pyrimidin-2-yl]amino}-5-methylphenyl)-1H-pyrazol-1-yl]methyl}-1,3-oxazolidine-2,4-dione] | ≤ 100 nM |
| Cc1cc(Nc2nccc(C(F)F)n2)cc(-c2cnn(CC(O)C(=O)O)c2)c1 (stereo not shown) [Example 5.36, 3-[4-(3-{[4-(difluoromethyl)pyrimidin-2-yl]amino}-5-methylphenyl)-1H-pyrazol-1-yl]-2-hydroxypropanoic acid] | ≤ 100 nM |
| Cc1cc(Nc2nccc(C(F)F)n2)cc(-c2cnn(C3CC(C)(C)CC(C)(O)C3O)c2)c1 (stereo not shown) [Example 22.10] | ≤ 100 nM |
